These results are taken from paper PMC6151488, “Structure, Absolute Configuration, and Antiproliferative Activity of Abietane and Icetexane Diterpenoids from Salvia ballotiflora” (Molecules : A Journal of Synthetic Chemistry and Natural …, 2017).

“And” between values parts separate entries of the source, which are not always exact repeats. Equal values may be shown once.

The subject of data set [1] is K562 (human chronic myelogenous leukemia). Put plainly: Sulforhodamine B (SRB) cytotoxicity assay, K562. The format is cell-based. The conditions noted are these: Homo sapiens, K562. An excerpt: (§1) The natural products were screened in vitro against the following human cancer cell lines: human mammary adenocarcinoma (MCF-7), human chronic myelogenous leukemia (K562), human glioblastoma (U251), human lung adenocarcinoma (SKLU-1), human colon cancer (HCT-15), human prostate cancer (PC-3), healthy gingival human fibroblasts (FGH), and normal monkey kidney cell lines, which were supplied by the National Cancer Institute (NCI, USA) and American Type Culture Collection (ATTC). The human tumor cytotoxicity was determined using the protein-binding dye sulforhodamine B (SRB) in a microculture assay to measure cell growth, as described in the protocol established by the NCI [30]. The cell lines were cultured in RPMI-1640 medium supplemented with 10% fetal bovine serum, 2 mM L-glutamine, 10,000 units/mL penicillin G sodium, 10,000 μg/mL streptomycin sulfate, and 25 μg/mL amphotericin B (Gibco), and 1% non-essential amino acids (Gibco). They were maintained at 37 °C in a humidified atmosphere with 5% CO2. The viability of the cells used in the experiments exceeded 95%, as determined with trypan blue.
(§2) Cytotoxicity after treatment of the tumors cells and normal cells with the test compounds were determined using the protein-binding dye sulforhodamine B (SRB) in a microculture assay to measure cell growth. The cells were removed from the tissue culture flasks by treatment with trypsin, and diluted with fresh media. Of these cell suspensions, 100 μL containing 5000–10,000 cells per well were pipetted into 96-well microtiter plates (Costar) and the material was incubated at 37 °C for 24 h in a 5% CO2 atmosphere. Subsequently, 100 μL of a solution of the compound obtained by diluting the stocks were added to each well. The cultures were exposed to the compound for 48 h. After the incubation period, cells were fixed to the plastic substratum by the addition of 50 μL of cold 50% aqueous trichloroacetic acid. The plates were incubated at 4 °C for 1 h, washed with tap water, and air-dried. The trichloroacetic-acid-fixed cells were stained by the addition of 0.4% SRB. The free SRB solution was then removed by washing with 1% aqueous acetic-acid. The plates were air-dried, and the bound dye was dissolved by the addition of 10 mM unbuffered Tris base (100 μL). The plates were placed on a shaker for 10 min, and the absorption was determined at 515 nm using an ELISA plate reader (Bio-Tex Instruments).

In data set [2] the test system is U251 (human glioblastoma). Put plainly: Sulforhodamine B (SRB) cytotoxicity assay, U251. The format is cell-based. The conditions noted are these: Homo sapiens.
Text: as §1, with “CO2.” for “CO2. The viability of the cells used in the experiments exceeded 95%, as determined with trypan blue.”
as §2
A general note: The SRB assay estimates cell density from bound dye.

For data set [3], the system named is PC-3 (human prostate cancer). Put plainly: Sulforhodamine B (SRB) cytotoxicity assay, PC-3. The format is cell-based.
Text: as §1, §2

For data set [4], the system named is MCF-7 (human mammary adenocarcinoma). The data set is described as follows: Sulforhodamine B (SRB) cytotoxicity assay, MCF-7. The format is cell-based. Conditions: Homo sapiens, MCF7; for inhibition at 50 µM: primary screening at 50.0 μM, NC = No cytotoxic.
Text: as §1, §2

The test system of data set [5] is COS-7 normal monkey kidney. The data set is described as follows: Sulforhodamine B (SRB) cytotoxicity assay, COS-7 normal cell line. Conditions: Primates, mean ± SD. The format is cell-based.
Text: as §1
as §2, with “The plates were incubated at 4 °C for 1 h, washed with tap water, and air-dried. The trichloroacetic-acid-fixed cells were stained by the addition of 0.4% SRB. The free SRB solution was then removed by washing with 1% aqueous acetic-acid. The plates were air-dried, and the bound dye was dissolved by the addition of 10 mM unbuffered Tris base (100 μL).” left out

The test system of data set [6] is SKLU-1 (human lung adenocarcinoma). The data set is described as follows: Sulforhodamine B (SRB) cytotoxicity assay, SKLU-1. The format is cell-based. Conditions: Homo sapiens; for inhibition at 50 µM: primary screening at 50.0 μM, NC = No cytotoxic.
Text: as §1, §2

Data set [7] concerns HCT-15 (human colon cancer). Put plainly: Sulforhodamine B (SRB) cytotoxicity assay, HCT-15. The format is cell-based.
Text: as §1, §2

The test system of a further data set is TPA-induced ear edema. The data set is described as follows: TPA-induced ear edema test in mice. The format is in vivo. Conditions: mice CD-1, 1.0 μmol ear^-1 topical, 4 h after TPA, mean ± SEM; for Inhibition of Edema (%): NA = Non-active. The protocol:
Male CD-1 mice weighing 25–30 g were maintained under standard laboratory conditions in the animal house (temperature 24 ± 2 °C) in a 12/12 h light/dark cycle, fed a laboratory diet and water ad libitum, following the Mexican official norm NOM-062-Z00-1999.
The TPA-induced ear edema assay in mice was performed as reported in reference. A solution of TPA (2.5 μg) in ethanol (10 μL) was applied topically to both faces (5 μL each ear) of the right ear of the mice, 10 min after solutions of the test substances in their respective solvents were applied (10 μL each face). The left ear received ethanol (10 μL) first, followed by 20 μL of the respective solvent. The mice were killed with CO2 four hours later. A 7-mm diameter plug was removed from each ear. The swelling was assessed as the difference in weight between the left and the right ear. Control animals received the correspondent solvent in each case. Edema inhibition (EI %) was calculated by the equation EI % = 100 − (B × 100/A), where A is the edema induced by TPA alone and B is the edema induced by TPA plus the sample. Indomethacin and celecoxib were used as reference compounds.

Data set [8] concerns six human cancer cell lines (U251, PC-3, K562, HCT-15, MCF-7, SKLU-1) and FGH. Put plainly: SRB primary screening, whole panel (result in words). The format is cell-based. The conditions noted are these: primary screening at 50.0 μM, complete panel. As for the experimental part: The same biological activity was also recently described for icetexane-derivatives isolated from Premna and Amentotaxus species. […] These facts prompted us to assay diterpenoids 3, 4, 6–8 and 10 for antiproliferative activity using six human cancer cell lines (U251, PC-3, K562, HCT-15, MCF-7, and SKLU-1), and a primary culture of healthy gingival human fibroblasts (FGH) at 1.0 or 50.0 μM (when cytotoxicity at 50.0 μM results were too high). […] Overall, the antiproliferative activity determined for 7 was lower than that observed for 6.
as §1
Cytotoxicity after treatment of the tumors cells and normal cells with the test compounds were determined using the protein-binding dye sulforhodamine B (SRB) in a microculture assay to measure cell growth. […] The plates were placed on a shaker for 10 min, and the absorption was determined at 515 nm using an ELISA plate reader (Bio-Tex Instruments).

Data set [9] in a line: Scavenging activity on free radical DPPH. The conditions noted are these: 30 min, 37 °C; for IC50: DPPH 100 μM, mean ± SEM; for DPPH inhibitory effect (%): at 100 μM. The protocol:
Free radical scavenging activity was measured using an adapted method of Mellors and Tappel. The test was carried out in 96-well microplates. A 50-μL aliquot of the solution of the test compound was mixed with 150 μL of an ethanol solution of DPPH (final concentration 100 μM). The mixture was incubated at 37 °C for 30 min, and the absorbance was then measured at 515 nm using a BioTek microplate reader SYNERGY HT. The percent inhibition was determined by comparison with a 100-μM DPPH ethanol blank solution.
On the technique in general: The DPPH test is a chemical assay of radical scavenging.

The mark [10] stands for this setting: mean n = 2, read-out: Antiproliferative activity (%), MCF-7.
The mark [11] stands for this setting: SK-LU-1, mean n = 2, read-out: Antiproliferative activity (%), SKLU-1.

Consider `COc1cccc2c1C(=O)c1c(O)c3c(c(O)c1C2=O)C[C@@](O)(C(=O)CO)C[C@@H]3O[C@H]1C[C@H](N)[C@H](O)[C@H](C)O1` [Adriamicyn, adriamycin, reference compound], for which the IC50 (commonly the concentration that inhibits the measured activity by half) was 200 ± 20 nM in data set [1] (SRB assay, 48 h exposure, mean ± SD, read-out: IC50 antiproliferative activity, K562); 80 ± 3 nM in [2] (U-251, 48 h, SRB assay, 48 h exposure, mean ± SD, read-out: IC50 antiproliferative activity, U251); 230 ± 20 nM in [4] (SRB assay, 48 h exposure, mean ± SD, read-out: IC50 antiproliferative activity, MCF-7); 250 ± 9 nM in [5]; 50 ± 3 nM in data set [6] (SK-LU-1, 48 h, SRB assay, 48 h exposure, mean ± SD, read-out: IC50 antiproliferative activity, SKLU-1). For the same molecule, the inhibition at 0.5 µM in data set [1] (positive control at 0.5 μM, mean n = 2, read-out: Antiproliferative activity (%), K562) is 100%; in [2] (U-251, positive control at 0.5 μM, mean n = 2, read-out: Antiproliferative activity (%), U251), 96%; in data set [3] (positive control at 0.5 μM, mean n = 2, read-out: Antiproliferative activity (%), PC-3), 85.2%; in data set [4] (positive control at 0.5 μM, mean n = 2, read-out: Antiproliferative activity (%), MCF-7) it was 99.1%; in data set [6] (SK-LU-1, positive control at 0.5 μM, mean n = 2, read-out: Antiproliferative activity (%), SKLU-1), 90%; in data set [7] (positive control at 0.5 μM, mean n = 2, read-out: Antiproliferative activity (%), HCT-15), 86.9%.
Take `Cc1ccc(-c2cc(C(F)(F)F)nn2-c2ccc(S(N)(=O)=O)cc2)cc1` [Celecoxib, celecoxib, reference compound]: the “Edema” value with TPA-induced ear edema is 6.94 ± 1.56 mg. Also, the “Inhibition of Edema (%)” value in the data set with TPA-induced ear edema stood at 54.34 ± 10.28%; in the data set on TPA-induced ear edema (listed as celecoxib) it was 54.3 ± 10.3%.
Regarding `CC(C)c1c(O)c(O)c2c(c1O)C(=O)CC1C3(CCCC1(C)C(=O)O3)C2` (centres unmarked) [Compound 4, 6,7,11,14-Tetrahydro-7-oxoicetexone], the melting point – broadly, the temperature of the solid-liquid transition – was 130 to 135 °C. Also, in data set [1] (primary screening at 50.0 μM, mean n = 2, NC = No cytotoxic, read-out: Antiproliferative activity (%), K562), the inhibition at 50 µM worked out at 100%. The inhibition at 50 µM in data set [2] (U-251, primary screening at 50.0 μM, mean n = 2, NC = No cytotoxic, read-out: Antiproliferative activity (%), U251) was found to be 100%. For the same molecule, the “Toxicity to the complete panel (in words)” value in data set [8] is on record as “very toxic”. Further, the inhibition at 50 µM in [3] (primary screening at 50.0 μM, mean n = 2, NC = No cytotoxic, read-out: Antiproliferative activity (%), PC-3) worked out at 80.3%. In [9], the IC50 came to 98400 ± 3300 nM and the “DPPH inhibitory effect (%)” value came to 64.5%. For the same molecule, the inhibition at 50 µM in [4] (setting [10]) came to 99%. In data set [6] (setting [11]), the inhibition at 50 µM was determined as 96.9%. Moreover, the inhibition at 50 µM in [7] (primary screening at 50.0 μM, mean n = 2, NC = No cytotoxic, read-out: Antiproliferative activity (%), HCT-15) was found to be 76.7%.
For the molecule `CC(C)C1=C(O)C(=O)C2=C(C1=O)C(O)CC1C3(C)CCCC21C(O)OC3` (centres unmarked) [Compound 10, conacytone], the “Toxicity to the complete panel (in words)” value in [8] is given as “no toxicity”. The “DPPH inhibitory effect (%)” value in [9] was found to be 4.8%. For the same molecule, the “Edema” value in the data set with TPA-induced ear edema is given as 11.77 ± 047 mg. Besides, the “Inhibition of Edema (%)” value in the data set with TPA-induced ear edema was 25.4 ± 3.0% and 25.37 ± 2.98 %. Moreover, the inhibition at 50 µM came to 14.7% in data set [4] (setting [10]) and 11.8% in [6] (setting [11]).
As to `COc1ccc2c(c1)c(CC(=O)O)c(C)n2C(=O)c1ccc(Cl)cc1` [Indometacin, Indomethacin, reference compound], in the data set on TPA-induced ear edema, the “Edema” value came to 2.88 ± 0.73 mg and the “Inhibition of Edema (%)” value is reported as 78.76 ± 7.68 %. In the data set with TPA-induced ear edema (listed as indomethacine), the “Inhibition of Edema (%)” value amounted to 78.8 ± 7.7%.
For the molecule `O=c1c(O)c(-c2ccc(O)c(O)c2)oc2cc(O)cc(O)c12` [quercetin, reference compound], the IC50 in [9] amounted to 10900 ± 500 nM.
With `Cc1c(C)c2c(c(C)c1O)CC[C@@](C)(CCC[C@H](C)CCC[C@H](C)CCCC(C)C)O2` [α-tocopherol, reference compound], the IC50 in data set [9] is 31700 ± 1040 nM.
